Data on two compounds can be found in patent publication EP0088462A2, “Anti-inflammatory and rheumatic composition containing organophosphonate and steroid” (THE PROCTER & GAMBLE COMPANY, priority 1982, dated 1983).

Marks after values point to notes of the source that are not given here.

The subject of the assay is rat adjuvant arthritis. Description: Rat adjuvant arthritis (Example I): paw edema, bone changes and systemic parameters after 46 days of daily treatment. It counts as in vivo, male Lewis rats. To be noted: for Group Average Fat Free Dry Weight of Bone from Tibias: daily. An excerpt: One hundred and twenty-five (125) male Lewis rats weighing between 160 and 180 grams each were randomly divided into 12 groups of ten rats each, except the vehicle control group which had 15 rats. Each group was placed under a treatment regimen as described in the table below for a 46 day period.
Adjuvant arthritis was induced in groups one through twelve by a single intradermal injection of heat-killed Mycobacterium butyricum in paraffin oil. The drug treatments wen begun on the same day that the adjuvant was administered, and continued on a daily basis through the study. Drug doses were adjusted each week for changes in body weight.
Paw edema was measured weekly by liquid displacement, immersing the hind legs in a liquid reservoir to the anatomical hair line. Bone changes were evaluated radiographically and by chemical analysis at the conclusion of the study. Ectopic calcification was quantitated by use of a point-counting system with grids of one millimeter square.
The diphosphonate treatment solution for use on the animals in group 2, 3, 7-12, was prepared as follows: the disodium salt of dichloromethane diphosphonic acid was dissolved in saline, adjusted to a pH of 7.4 using sodium hydroxide, and sterilized by vacuum filtration (0.2 micron). The concentration of this solution was adjusted to a concentration of 5 mg of C12 MDP (disodium salt) per milliliter of solution.
The prednisolone to be administered was suspended in […]. The concentration of this suspension was adjusted to 0.10 milligram per milliliter so that it could be administered at a dose volume of 0.5 ml/100 gm body weight.
The disodium salt of Cl2MDP was administered by subcutaneous ventral flank injections. The prednisolone was administered by gastric intubation.
At the end of the treatment period, the rats were sacrificed, necropsied, and the effects of the treatment on the rats were measured in the categories listed below.

[1] abbreviates: single agent versus placebo (saline and methyl cellulose).

In the case of `O=P(O)(O)C(Cl)(Cl)P(=O)(O)O` [Cl2MDP, Dichloromethanediphosphonic acid], the “Group Average Fat Free Dry Weight of Bone from Tibias” value (“Group Average Fat Free Dry Weight” for short) (Cl2MDP 2 mg/kg subcutaneous, Prednisolone none) is listed as 372.48*. Moreover, the “Group Average Fat Free Dry Weight” value (Cl2MDP 5 mg/kg subcutaneous, Prednisolone none) is 382.42*. Further, under setting [1], the “inhibiting bone changes associated with arthritic disease” value is on record as “significantly more effective than the placebo”; the “inhibiting loss of body, weight” value is “significantly more effective than the placebo”; the inhibiting paw edema result is “significantly more effective than the placebo”; the “inhibiting spleen weight/body weight ratio” value is given as “significantly more effective than the placebo”.

With `C[C@]12C=CC(=O)C=C1CC[C@@H]1[C@@H]2[C@@H](O)C[C@@]2(C)[C@H]1CC[C@]2(O)C(=O)CO` [Prednisolone, 11 β, 17, 21-Trihydroxypregna-1,4-diene-3, 20-dione], the “Group Average Fat Free Dry Weight” value is, setting by setting: (Cl2MDP none, Prednisolone 0.25 mg/kg by gastric intubation) 308.96; (Cl2MDP none, Prednisolone 0.50 mg/kg by gastric intubation) 311.56; (Cl2MDP none, Prednisolone 2.50 mg/kg by gastric intubation) 315.58. Also, under “prednisolone alone”, the inhibiting pathological caldivication result was “effective”. For the same compound, the “inhibiting the calcium and phosphorus in bone” value (prednisolone alone) is given as “effective”. Under setting [1], the inhibiting paw edema entry is recorded as “effective”.
